Measurements taken from article PMC6199744, “Development of Chemical Proteomics for the Folateome and Analysis of the Kinetoplastid Folateome” (ACS Infectious Diseases, 2018).
Read-outs that look alike come from different tables or passages of the source.

What was measured:
Format in all cases: binding
[1] = target: T1, HeLa cell extract proteins (Homo sapiens, UniProt P27824)
T1 construct: endogenous in cells; host or cells: HeLa cell extract
T1 sequence (P27824 21-592): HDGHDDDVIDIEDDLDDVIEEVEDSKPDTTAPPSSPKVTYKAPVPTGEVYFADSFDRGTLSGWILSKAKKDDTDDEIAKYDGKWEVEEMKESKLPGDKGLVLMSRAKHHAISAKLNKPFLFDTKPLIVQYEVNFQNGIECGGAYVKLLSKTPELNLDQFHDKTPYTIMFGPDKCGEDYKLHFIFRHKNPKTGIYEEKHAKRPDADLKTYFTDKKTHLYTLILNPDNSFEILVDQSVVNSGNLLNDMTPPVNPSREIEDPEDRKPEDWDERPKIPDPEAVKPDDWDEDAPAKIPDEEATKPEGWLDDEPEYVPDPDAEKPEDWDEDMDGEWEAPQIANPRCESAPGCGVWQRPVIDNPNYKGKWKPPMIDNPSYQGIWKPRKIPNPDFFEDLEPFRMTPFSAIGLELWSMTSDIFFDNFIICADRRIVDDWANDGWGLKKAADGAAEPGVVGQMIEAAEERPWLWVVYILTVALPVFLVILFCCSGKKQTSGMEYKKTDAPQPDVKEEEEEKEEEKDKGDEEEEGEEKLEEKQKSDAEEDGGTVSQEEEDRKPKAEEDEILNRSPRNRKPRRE

[2] = target: T2, HeLa cell extract proteins (Homo sapiens, UniProt Q09161)
T2 construct: endogenous in cells; host or cells: HeLa cell extract
T2 sequence (Q09161 1-790): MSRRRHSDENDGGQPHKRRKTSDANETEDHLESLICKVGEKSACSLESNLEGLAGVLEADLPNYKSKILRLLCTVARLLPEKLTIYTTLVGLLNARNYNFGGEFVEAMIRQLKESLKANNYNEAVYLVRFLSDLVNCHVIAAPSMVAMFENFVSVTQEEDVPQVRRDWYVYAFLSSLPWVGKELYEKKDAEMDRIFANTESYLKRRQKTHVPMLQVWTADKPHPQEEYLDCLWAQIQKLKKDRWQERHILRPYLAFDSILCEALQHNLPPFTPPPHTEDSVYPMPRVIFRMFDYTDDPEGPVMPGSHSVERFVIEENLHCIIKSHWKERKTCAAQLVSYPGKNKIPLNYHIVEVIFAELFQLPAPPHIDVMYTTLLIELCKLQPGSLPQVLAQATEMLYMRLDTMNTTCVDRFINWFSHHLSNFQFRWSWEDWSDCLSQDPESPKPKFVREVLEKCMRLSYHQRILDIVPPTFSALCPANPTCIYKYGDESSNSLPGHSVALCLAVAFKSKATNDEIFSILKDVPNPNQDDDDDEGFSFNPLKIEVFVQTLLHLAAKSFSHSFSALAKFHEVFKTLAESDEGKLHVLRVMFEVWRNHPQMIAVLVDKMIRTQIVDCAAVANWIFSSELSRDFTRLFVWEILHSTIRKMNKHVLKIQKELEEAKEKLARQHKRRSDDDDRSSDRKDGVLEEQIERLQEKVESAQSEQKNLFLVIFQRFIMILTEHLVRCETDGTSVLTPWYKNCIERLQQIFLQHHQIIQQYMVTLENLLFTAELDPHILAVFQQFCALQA

[3] = target: T3, HeLa cell extract proteins (Homo sapiens, UniProt P52907)
T3 construct: endogenous in cells; host or cells: HeLa cell extract

[4] = target: T4, HeLa cell extract proteins (Homo sapiens, UniProt P13798)
T4 construct: endogenous in cells; host or cells: HeLa cell extract
T4 sequence (P13798 1-732): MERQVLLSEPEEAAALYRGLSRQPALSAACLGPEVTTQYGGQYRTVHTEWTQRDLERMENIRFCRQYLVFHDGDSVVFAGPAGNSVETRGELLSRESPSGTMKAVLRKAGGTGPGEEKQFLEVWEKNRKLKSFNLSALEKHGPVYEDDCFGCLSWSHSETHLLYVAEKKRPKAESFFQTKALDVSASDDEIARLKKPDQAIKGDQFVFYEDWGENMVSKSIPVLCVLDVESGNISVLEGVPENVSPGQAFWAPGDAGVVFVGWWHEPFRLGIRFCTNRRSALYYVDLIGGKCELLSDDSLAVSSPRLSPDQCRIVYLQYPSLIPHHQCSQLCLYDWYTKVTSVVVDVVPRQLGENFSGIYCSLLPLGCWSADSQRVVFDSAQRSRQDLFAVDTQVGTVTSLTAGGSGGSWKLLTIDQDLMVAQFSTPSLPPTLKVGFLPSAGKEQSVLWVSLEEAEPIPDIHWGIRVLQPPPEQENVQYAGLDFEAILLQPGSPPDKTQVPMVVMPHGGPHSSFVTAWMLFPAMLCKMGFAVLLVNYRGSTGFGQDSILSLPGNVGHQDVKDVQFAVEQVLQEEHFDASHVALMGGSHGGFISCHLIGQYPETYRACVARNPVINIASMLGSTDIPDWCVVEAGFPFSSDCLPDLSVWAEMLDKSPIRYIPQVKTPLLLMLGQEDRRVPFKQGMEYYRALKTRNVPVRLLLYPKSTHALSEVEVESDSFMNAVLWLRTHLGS

[5] = target: T5, HeLa cell extract proteins (Homo sapiens, UniProt Q13263)
T5 construct: endogenous in cells; host or cells: HeLa cell extract

[6] = target: T6, HeLa cell extract proteins (Homo sapiens, UniProt Q96DE0)
T6 construct: endogenous in cells; host or cells: HeLa cell extract

[7] = target: T7, HeLa cell extract proteins (Homo sapiens, UniProt P50991)
T7 construct: endogenous in cells; host or cells: HeLa cell extract
T7 sequence (P50991 1-539): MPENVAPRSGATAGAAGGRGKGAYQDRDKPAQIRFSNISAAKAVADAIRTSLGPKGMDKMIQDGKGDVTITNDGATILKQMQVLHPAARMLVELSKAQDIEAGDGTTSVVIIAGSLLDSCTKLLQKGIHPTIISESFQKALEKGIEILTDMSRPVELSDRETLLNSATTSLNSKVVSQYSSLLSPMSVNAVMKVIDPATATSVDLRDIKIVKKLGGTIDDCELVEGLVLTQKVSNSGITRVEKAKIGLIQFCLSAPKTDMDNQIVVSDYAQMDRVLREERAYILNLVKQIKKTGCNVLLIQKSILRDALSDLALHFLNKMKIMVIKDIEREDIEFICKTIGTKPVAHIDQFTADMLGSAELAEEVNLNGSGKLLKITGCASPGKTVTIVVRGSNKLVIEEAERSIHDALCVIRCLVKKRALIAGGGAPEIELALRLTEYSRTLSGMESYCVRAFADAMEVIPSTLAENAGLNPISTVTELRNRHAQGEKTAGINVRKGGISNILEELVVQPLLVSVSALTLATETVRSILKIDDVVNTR

[8] = target: T8, HeLa cell extract proteins (Homo sapiens, UniProt P26599)
T8 construct: endogenous in cells; host or cells: HeLa cell extract

[9] = HeLa, protein APEH (ACYLAMINO-ACID-RELEASING ENZYME)

T5 sequence (Q13263 whole entry): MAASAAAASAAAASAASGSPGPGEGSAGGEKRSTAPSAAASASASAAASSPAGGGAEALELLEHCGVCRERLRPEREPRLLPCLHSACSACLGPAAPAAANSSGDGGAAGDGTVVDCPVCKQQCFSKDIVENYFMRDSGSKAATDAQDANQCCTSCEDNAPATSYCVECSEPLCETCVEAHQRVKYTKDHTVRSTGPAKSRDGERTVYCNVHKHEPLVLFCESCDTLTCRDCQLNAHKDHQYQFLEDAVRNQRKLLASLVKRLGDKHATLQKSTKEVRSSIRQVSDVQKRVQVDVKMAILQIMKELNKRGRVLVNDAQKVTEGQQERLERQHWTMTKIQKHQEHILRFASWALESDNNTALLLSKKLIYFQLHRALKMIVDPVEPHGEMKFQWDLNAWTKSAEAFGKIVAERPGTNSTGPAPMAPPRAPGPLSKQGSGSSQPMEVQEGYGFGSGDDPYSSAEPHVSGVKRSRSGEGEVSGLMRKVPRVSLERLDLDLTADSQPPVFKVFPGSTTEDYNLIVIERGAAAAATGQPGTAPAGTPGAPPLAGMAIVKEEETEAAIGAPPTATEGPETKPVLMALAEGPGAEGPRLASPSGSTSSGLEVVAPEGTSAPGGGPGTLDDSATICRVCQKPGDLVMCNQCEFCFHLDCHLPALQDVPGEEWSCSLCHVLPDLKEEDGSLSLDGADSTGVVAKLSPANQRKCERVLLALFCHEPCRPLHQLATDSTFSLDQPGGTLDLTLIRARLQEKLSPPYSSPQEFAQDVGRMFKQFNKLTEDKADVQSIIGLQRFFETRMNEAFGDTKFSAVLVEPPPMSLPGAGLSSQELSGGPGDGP
T8 sequence (P26599 whole entry): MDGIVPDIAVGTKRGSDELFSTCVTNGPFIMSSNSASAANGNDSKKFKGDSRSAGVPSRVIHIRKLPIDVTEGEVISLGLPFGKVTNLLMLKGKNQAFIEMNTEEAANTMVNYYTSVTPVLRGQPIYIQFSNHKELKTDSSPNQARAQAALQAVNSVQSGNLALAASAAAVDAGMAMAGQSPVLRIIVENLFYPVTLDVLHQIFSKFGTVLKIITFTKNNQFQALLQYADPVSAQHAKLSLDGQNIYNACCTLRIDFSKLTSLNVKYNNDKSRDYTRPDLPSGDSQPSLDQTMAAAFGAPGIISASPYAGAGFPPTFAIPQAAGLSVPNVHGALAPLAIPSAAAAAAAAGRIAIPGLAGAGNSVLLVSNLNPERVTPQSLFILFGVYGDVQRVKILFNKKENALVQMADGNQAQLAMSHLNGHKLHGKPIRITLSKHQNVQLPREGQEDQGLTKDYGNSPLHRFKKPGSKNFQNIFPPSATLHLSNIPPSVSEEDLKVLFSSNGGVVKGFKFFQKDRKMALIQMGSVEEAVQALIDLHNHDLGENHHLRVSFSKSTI
T6 sequence (Q96DE0 whole entry): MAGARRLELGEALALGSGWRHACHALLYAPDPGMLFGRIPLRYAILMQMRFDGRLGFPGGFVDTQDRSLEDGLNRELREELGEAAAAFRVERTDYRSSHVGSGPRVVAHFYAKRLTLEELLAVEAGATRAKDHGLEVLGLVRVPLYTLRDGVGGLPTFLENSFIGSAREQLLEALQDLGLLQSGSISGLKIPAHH

SMILES: Nc1nc2c(c(=O)[nH]1)N(C=O)C(CNc1ccc(C(=O)N[C@@H](CCC(=O)O)C(=O)O)cc1)CN2 (some centres unmarked) [LEU, leucovorin]
- fold changes relative to vehicle control ([1]; HeLa, captured protein CANX): 1.09
- fold changes relative to vehicle control ([2]; protein NCBP1, HeLa): 0.81
- fold changes relative to vehicle control ([3]; HeLa, protein CAPZA1): 0.89
- fold changes relative to vehicle control [4, 9]: 1.08
- fold changes relative to vehicle control ([5]; protein TRIM28, HeLa): 0.88
- fold changes relative to vehicle control ([6]; HeLa, captured protein NUDT16): 0.93
- fold changes relative to vehicle control ([7]; protein CCT4, HeLa): 1
- fold changes relative to vehicle control ([8]; HeLa, protein PTBP1): 0.98

SMILES: Nc1nc2[nH]cc(CCc3ccc(C(=O)N[C@@H](CCC(=O)O)C(=O)O)cc3)c2c(=O)[nH]1 [PTX, pemetrexed]
- fold changes relative to vehicle control [1]: 1.25
- fold changes relative to vehicle control [2]: 0.95
- fold changes relative to vehicle control [3]: 1.02
- fold changes relative to vehicle control [4]: 0.96
- fold changes relative to vehicle control [5]: 0.97
- fold changes relative to vehicle control [6]: 0.92
- fold changes relative to vehicle control [7]: 1.01
- fold changes relative to vehicle control [8]: 0.95

SMILES: CCCCCCOc1ccc(Cc2cnc(N)nc2N)cc1 [compound 1]
- fold changes relative to vehicle control ([1]; protein CANX, HeLa): 1.3
- fold changes relative to vehicle control ([2]; captured protein NCBP1, HeLa): 0.91
- fold changes relative to vehicle control ([3]; protein CAPZA1, HeLa): 1.13
- fold changes relative to vehicle control ([4]; HeLa, protein APEH): 0.96
- fold changes relative to vehicle control ([5]; protein TRIM28, HeLa): 1.12
- fold changes relative to vehicle control ([6]; captured protein NUDT16, HeLa): 0.62
- fold changes relative to vehicle control ([7]; protein CCT4, HeLa): 1.25
- fold changes relative to vehicle control ([8]; protein PTBP1, HeLa): 0.97

SMILES: CCCCCCOc1cccc(Cc2cnc(N)nc2N)c1 [compound 2]
- fold changes relative to vehicle control ([1]; protein CANX, HeLa): 2.38
- fold changes relative to vehicle control ([2]; captured protein NCBP1, HeLa): 1.03
- fold changes relative to vehicle control ([3]; protein CAPZA1, HeLa): 1.32
- fold changes relative to vehicle control ([4]; HeLa, protein APEH): 0.91
- fold changes relative to vehicle control ([5]; protein TRIM28, HeLa): 1.44
- fold changes relative to vehicle control ([6]; captured protein NUDT16, HeLa): 0.93
- fold changes relative to vehicle control ([7]; protein CCT4, HeLa): 1.73
- fold changes relative to vehicle control ([8]; protein PTBP1, HeLa): 1.55

SMILES: Nc1nc2cccc(-c3ccccc3)c2n1Cc1ccc(Cl)c(Cl)c1 [compound 3]
- fold changes relative to vehicle control ([1]; protein CANX, HeLa): 0.92
- fold changes relative to vehicle control ([2]; captured protein NCBP1, HeLa): 0.96
- fold changes relative to vehicle control ([3]; protein CAPZA1, HeLa): 1.15
- fold changes relative to vehicle control ([4]; HeLa, protein APEH): 1.01
- fold changes relative to vehicle control ([5]; protein TRIM28, HeLa): 1.02
- fold changes relative to vehicle control ([6]; captured protein NUDT16, HeLa): 1.02
- fold changes relative to vehicle control ([7]; protein CCT4, HeLa): 1
- fold changes relative to vehicle control ([8]; protein PTBP1, HeLa): 1.08

SMILES: NCCOCCOCC(=O)Nc1nc2ncc(CNc3ccc(C(=O)NC(CCC(=O)O)C(=O)O)cc3)nc2c(=O)[nH]1 (centres unmarked) [compound 6]
- fold changes relative to vehicle control ([1]; HeLa, captured protein CANX): 1.35
- fold changes relative to vehicle control ([2]; protein NCBP1, HeLa): 0.89
- fold changes relative to vehicle control ([3]; HeLa, protein CAPZA1): 1.11
- fold changes relative to vehicle control [4, 9]: 0.91
- fold changes relative to vehicle control ([5]; protein TRIM28, HeLa): 1.02
- fold changes relative to vehicle control ([6]; HeLa, captured protein NUDT16): 0.84
- fold changes relative to vehicle control ([7]; protein CCT4, HeLa): 1.14
- fold changes relative to vehicle control ([8]; HeLa, protein PTBP1): 1.03

SMILES: NCCCNc1ccc(C(=O)NC(CCC(=O)O)C(=O)O)cc1 (centres unmarked) [compound 7]
- fold changes relative to vehicle control ([1]; HeLa, captured protein CANX): 1.06
- fold changes relative to vehicle control ([2]; protein NCBP1, HeLa): 0.93
- fold changes relative to vehicle control ([3]; HeLa, protein CAPZA1): 1.09
- fold changes relative to vehicle control [4, 9]: 1
- fold changes relative to vehicle control ([5]; protein TRIM28, HeLa): 0.9
- fold changes relative to vehicle control ([6]; HeLa, captured protein NUDT16): 1.02
- fold changes relative to vehicle control ([7]; protein CCT4, HeLa): 0.94
- fold changes relative to vehicle control ([8]; HeLa, protein PTBP1): 1.05
